# Values of other authors as cited in patent US7745108B2, “Method for identifying terpene synthase” (The Regents of the University of California, priority 2003, dated 2010).
# Experiments:
# monoterpene synthases = conditions: all twelve monoterpene synthases tested
# taxadiene synthase = molecular target: T1, taxadiene synthase (Taxus brevifolia, UniProt Q41594)
# T1 sequence (Q41594 61-862 limits assumed): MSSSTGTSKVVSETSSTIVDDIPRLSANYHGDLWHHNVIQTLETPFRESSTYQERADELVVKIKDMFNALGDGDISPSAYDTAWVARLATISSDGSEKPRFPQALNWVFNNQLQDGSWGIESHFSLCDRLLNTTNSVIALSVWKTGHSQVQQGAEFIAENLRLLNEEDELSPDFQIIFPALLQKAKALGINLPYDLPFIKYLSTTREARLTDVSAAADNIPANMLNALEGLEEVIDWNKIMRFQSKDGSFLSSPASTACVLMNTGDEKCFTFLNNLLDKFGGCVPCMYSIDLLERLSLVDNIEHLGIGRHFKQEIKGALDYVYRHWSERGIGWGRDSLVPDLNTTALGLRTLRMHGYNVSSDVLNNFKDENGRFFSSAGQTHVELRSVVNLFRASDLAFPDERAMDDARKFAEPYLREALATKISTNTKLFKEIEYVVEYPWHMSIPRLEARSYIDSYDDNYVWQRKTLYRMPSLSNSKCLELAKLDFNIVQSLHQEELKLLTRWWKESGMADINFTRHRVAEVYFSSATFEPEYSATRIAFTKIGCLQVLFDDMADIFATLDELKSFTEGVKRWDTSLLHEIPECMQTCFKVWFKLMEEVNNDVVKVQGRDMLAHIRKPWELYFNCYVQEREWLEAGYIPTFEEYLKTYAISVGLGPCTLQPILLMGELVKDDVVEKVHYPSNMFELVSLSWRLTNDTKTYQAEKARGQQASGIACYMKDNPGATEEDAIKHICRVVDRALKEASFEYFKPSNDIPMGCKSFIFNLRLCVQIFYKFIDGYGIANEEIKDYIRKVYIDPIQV
Substance,sensitivity of monoterpene synthases to the inhibitor (monoterpene synthases),covalent modification and inhibition of taxadiene synthase (taxadiene synthase)
cyclopropylidene geranyl diphosphate [CP-GPP],sensitive,
cyclopropylidene geranylgeranyl diphosphate [CP-GGPP],,unsuccessful in covalently modifying and inhibiting
